Experimental data taken from patent publication US8084456B2, “Pyrazine-based tubulin inhibitors” (YM Biosciences Australia Pty Ltd, priority 2002, dated 2011).

Tests used:
Type in all cases: cell-based
[1] = tested on: DU145 (Prostate Cancer) cells; assay: Cellular growth assay (MTT), DU145; details: Homo sapiens, DU-145, 40 hr incubation, read-out: DU145 (inhibition of 50% of cellular growth)
Protocol: (§1) K562 (Chronic Myeloid Leukemia), PC3 (Prostate Cancer), and DU145 (Prostate Cancer) were obtained from the American Type Culture Collection (ATCC). K562 was grown in RPMI, with 10% FBS with Glutamx added. DU145 cells were cultured in DMED, with 10% FBS and Glutamx and MEM non-essential amino acids added. PC3 cells were grown in F12K medium, with 10% FBS and Glutamx and MEM non-essential amino acids added. All cells were grown at 37° C. in 5% CO2.

TelJak3 = TelJak3 (Homo sapiens, UniProt P52333); assay: Cellular growth assay (MTT), BaF3 TEL/JAK3 cells; details: 40 hr incubation, read-out: TelJak3 (inhibition of 50% of cellular growth)
[2] = tested on: K562 (Chronic Myeloid Leukemia) cells; assay: Cellular growth assay (MTT), K562; details: Homo sapiens, 40 hr incubation, read-out: K562 (inhibition of 50% of cellular growth)
Protocol: as §1

TelJak2 = TelJak2 (Homo sapiens, UniProt O60674); assay: Cellular growth assay (MTT), BaF3 TEL/JAK2 cells; details: 40 hr incubation, read-out: TelJak2 (inhibition of 50% of cellular growth)
[3] = tested on: PC3 (Prostate Cancer) cells; assay: Cellular growth assay (MTT), PC3; details: Homo sapiens, PC-3, 40 hr incubation, read-out: PC3 (inhibition of 50% of cellular growth)
Protocol: as §1

TelJak3, sequence (P52333 with tags, fused parts or gaps): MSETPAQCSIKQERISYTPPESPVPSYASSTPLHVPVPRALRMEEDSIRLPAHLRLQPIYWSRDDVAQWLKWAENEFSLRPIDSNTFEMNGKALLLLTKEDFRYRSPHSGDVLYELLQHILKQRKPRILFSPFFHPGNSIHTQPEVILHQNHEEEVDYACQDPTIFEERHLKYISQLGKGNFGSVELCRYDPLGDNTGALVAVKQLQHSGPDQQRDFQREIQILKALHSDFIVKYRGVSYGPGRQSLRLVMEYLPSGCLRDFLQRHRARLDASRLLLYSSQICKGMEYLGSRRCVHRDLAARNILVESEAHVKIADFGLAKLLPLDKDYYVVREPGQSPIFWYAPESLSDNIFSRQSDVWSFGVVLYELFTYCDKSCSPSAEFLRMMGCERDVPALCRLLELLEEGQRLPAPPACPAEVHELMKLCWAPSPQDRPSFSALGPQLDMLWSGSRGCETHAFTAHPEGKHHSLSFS
TelJak2, sequence (O60674 with tags, fused parts or gaps): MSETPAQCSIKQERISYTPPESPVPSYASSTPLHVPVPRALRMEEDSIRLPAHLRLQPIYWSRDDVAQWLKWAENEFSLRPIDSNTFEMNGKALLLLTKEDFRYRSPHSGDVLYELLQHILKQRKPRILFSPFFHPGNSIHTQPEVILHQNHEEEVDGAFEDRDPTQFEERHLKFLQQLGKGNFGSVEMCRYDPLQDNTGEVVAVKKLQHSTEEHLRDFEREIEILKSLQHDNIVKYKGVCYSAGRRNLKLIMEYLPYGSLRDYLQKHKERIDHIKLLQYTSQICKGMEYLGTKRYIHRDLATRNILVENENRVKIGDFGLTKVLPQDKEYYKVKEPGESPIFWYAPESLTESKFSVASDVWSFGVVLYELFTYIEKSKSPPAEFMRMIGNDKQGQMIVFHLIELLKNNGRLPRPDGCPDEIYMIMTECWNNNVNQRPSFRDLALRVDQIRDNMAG

Row | SMILES | IC50 [1] [µM] | IC50 (TelJak3) [µM] | IC50 [2] [µM] | IC50 (TelJak2) [µM] | IC50 [3] [µM]
1 | CCCC(Nc1cncc(-c2ccc(O)c(OC)c2)n1)c1cccc(OC(F)(F)F)c1 (stereo not shown) | > 20 | ≤ 20 | ≤ 20 | ≤ 20 | > 20
2 | CCCC(Nc1nc(-c2ccc(O)c(OC)c2)cnc1N)c1cccc(F)c1 (stereo not shown) | > 20 | ≤ 20 | ≤ 20 | ≤ 20 | > 20
3 | CCCC(Nc1cncc(-c2ccc(O)c(OC)c2)n1)c1cc(F)ccc1F (stereo not shown) | > 20 | ≤ 20 | ≤ 20 | ≤ 20 | > 20
4 | CCCC(Nc1cncc(-c2ccc(O)c(OC)c2)n1)c1cccc(C(=O)NC)c1 (stereo not shown) | > 20 | ≤ 20 | ≤ 20 | ≤ 20 | > 20
5 | CCCC(Nc1cncc(-c2ccc(O)c(OC)c2)n1)c1cccc(C(=O)NC(C)C2CC2)c1 (stereo not shown) | > 20 | ≤ 20 | ≤ 20 | ≤ 20 | > 20
6 | CCCC(Nc1cncc(-c2ccc(O)c(OC)c2)n1)c1cccc(C(=O)NCCN(C)C)c1 (stereo not shown) | > 20 | ≤ 20 | ≤ 20 | ≤ 20 | ≤ 20
7 | CCCC(Nc1cncc(-c2ccc(O)c(OC)c2)n1)c1cccc(C(=O)NCc2cccnc2)c1 (stereo not shown) | > 20 | ≤ 20 | ≤ 20 | ≤ 20 | > 20
8 | CCCC(Nc1cncc(-c2ccc(O)c(OC)c2)n1)c1ccncc1 (stereo not shown) | > 20 | ≤ 20 | ≤ 20 | ≤ 20 | 
9 | CCCC(Nc1cncc(-c2ccc(O)c(OCC)c2)n1)c1cncc(C)c1 (stereo not shown) | > 20 | ≤ 20 | ≤ 20 | ≤ 20 | ≤ 20
10 | CCCC(Nc1cncc(-c2ccc(NC(C)=O)c(OC)c2)n1)c1cncc(C)c1 (stereo not shown) | ≤ 20 | ≤ 20 | ≤ 20 | ≤ 20 | > 20
11 | CCCC(Nc1cncc(-c2ccc(O)c(OCC)c2)n1)c1cccnc1 (stereo not shown) | > 20 | ≤ 20 | ≤ 20 | ≤ 20 | ≤ 20
12 | COc1cc(-c2cncc(NC(CCC3OCCO3)c3cccc(Cl)c3)n2)ccc1O (stereo not shown) | > 20 | ≤ 20 | ≤ 20 | ≤ 20 | > 20
13 | CCCC(Nc1cncc(-c2cc(OC)c(O)c(OC)c2)n1)c1ccccc1 (stereo not shown) | > 20 | ≤ 20 | > 20 | ≤ 20 | > 20
14 | CCCC(Nc1cncc(-c2ccc(NC(C)=O)c(OC)c2)n1)c1cccnc1 (stereo not shown) | > 20 | ≤ 20 | ≤ 20 | ≤ 20 | ≤ 20
15 | CCCC(Nc1cncc(-c2ccc(N)c(OC)c2)n1)c1ccccc1 (stereo not shown) | > 20 | ≤ 20 | ≤ 20 | ≤ 20 | > 20
16 | CCCC(=O)Nc1ccc(-c2cncc(NC(CCC)c3cccnc3)n2)cc1OC (stereo not shown) |  | ≤ 20 | ≤ 20 | ≤ 20 | ≤ 20
17 | CCC[C@H](Nc1cncc(-c2ccc(NC(C)=O)c(OC)c2)n1)c1ccccc1 |  | ≤ 20 |  | ≤ 20 | > 20
18 | CCN(CC)CCCC(Nc1cncc(-c2ccc(O)c(OC)c2)n1)c1ccccc1 (stereo not shown) | > 20 | ≤ 20 | > 20 | ≤ 20 | > 20
19 | CCN(CC)CCCCC(Nc1cncc(-c2ccc(O)c(OC)c2)n1)c1ccccc1 (stereo not shown) | ≤ 20 | ≤ 20 | > 20 | ≤ 20 | > 20
20 | COc1cc(-c2cncc(NC(CCCCN3CCOCC3)c3ccccc3)n2)ccc1O (stereo not shown) | > 20 | ≤ 20 | > 20 | ≤ 20 | > 20
21 | CCC[C@H](Nc1cncc(-c2ccc(NCC)c(OC)c2)n1)c1ccccc1 | > 20 | ≤ 20 | ≤ 20 | ≤ 20 | ≤ 20
22 | COc1cc(-c2cncc(NC(C)c3ccccn3)n2)ccc1O (stereo not shown) | > 20 | ≤ 20 | > 20 | ≤ 20 | > 20
